Source: US20240238268A1, “TREATMENTS AND METHODS FOR TREATING ALZHEIMER'S DISEASE” (Board of Supervisors of Louisiana State University and …, priority 2021, published 2024)

Columns and labels:
aged 3xTg-AD female mice = test: Neurovascular coupling: microvessel diameter after whisker stimulation, two-photon laser scanning microscopy; type: in vivo, mouse; conditions: TP-064 30 mg/kg for 7 days, IP or PRMT4-AAV knockdown
Experimental: FIGS. 11A-11D show neurovascular coupling dysfunction was alleviated with specific PRMT4 inhibitor (TP-064) or PRMT4-AAV knockdown in aged 3xTg-AD female mice. In FIG. 11A, neurovascular coupling was evaluated based on vascular tonicity changes in response to whisker stimulation (30 sec, 4 Hz) via two-photon laser scanning microscopy. FITC-dextran was injected IV for visualization of cerebral microvessels (Z=100 μm depth) in the cortex. In FIG. 11B, vessel diameters were measured before/after whisker stimulation, and before/after TP-064 (30 mg/kg for 7 days, IP) or PRMT4-AAV knockdown.
Determining if inhibition of PRMT4 can promote neurovascular coupling. […] One reason for this is the loss of neurovascular coupling is associated with the early progression of AD. Whisker-barrel stimulation is a well-established model for examining neurovascular coupling [Rodgers (our in-house collaborator) et al., 2006, 2008, 2009]. The inventors measured cortical microvessel vascular reactivity with two-photon laser scanning microscopy while evoking 30 sec of whisker stimulation in mice. Based on the inventors' findings that aged 3xTg-AD female mice had enhanced PRMT4 expression (FIGS. 2A-3C and 5A-5D), the inventors' results evidence that aged 3xTg-AD female mice presented decreased cortical microvessel diameter as compared to aged 3xTg-AD male mice 30 see (4 Hz) after whisker stimulation. […]

C57BL/6J mice = test: Regional cortical cerebral blood flow, laser speckle contrast imaging, C57 mice; type: in vivo, mouse
Experimental: Surgical Preparation and Anesthetic Procedure: Mice were anesthetized with 4% isoflurane (Cat. No. 21295098, Patterson Veterinary, Greeley, CO) and a mixture of O2 and N2O (30:70) via mask. Hair was shaved at the site of surgery (from the nape up to the eyes). Body temperature was maintained at 37° C. by a rodent heating pad with anal probe as a temperature reference (ThermoStar, RWD Life Science, San Diego, CA). Anesthesia was maintained by lowering isoflurane from 4% to 1%.
Thinned-skull preparation: Mice were placed in a stereotaxic frame to stabilize the skull and artificial tears (Patterson Veterinary, Greeley, CO) was applied in each eye. Dissection scissors and forceps were used to reveal the skull. A high-speed dental drill (RWD Life Science, San Diego, CA) was used to thin the skull creating a small window (1 mm in diameter) approximately 2 mm rostral and 1 mm lateral to the lambda, with saline irrigation to prevent overheating of the skull tissue. Laser speckle contrast imaging or two-photon laser scanning microscopy analyses were conducted following this preparation.
Laser speckle contrast imaging: Cerebral microvasculature was imaged by utilizing the thin skull preparation method. After thinning the skull, the mouse was placed in a stereotaxic apparatus. […]

## CNCCN1CCC(c2cc(CN(C)C(=O)c3cccc(Oc4ccccc4)c3)ccn2)CC1 [TP-064, N-Methyl-N-((2-(1-(2-(methylamino)ethyl)piperidin-4-yl)pyridin-4-yl)methyl)-3-phenoxybenzamide]
Aged 3xTg-AD female mice
  microvessel diameter after whisker stimulation: increased
C57BL/6J mice; C57 mice, decreased PRMT4 via TP-064/PRMT4-AAV
  perfusion: did not affect
C57BL/6J mice; treated C57BL/6J mice, 30 mg/kg, IP, 7 days
  regional cortical CBF: 98.3±10.1%
